# Measured values: patent US20080234232A1, “Methods and compositions for targeting AFAP” (priority 2007, published 2008)
# How the values were obtained:
# PH1 domain of AFAP-110 [1] = biological target: T1, PH1 domain of AFAP-110 (Gallus gallus, UniProt Q90738); assay: Lipid binding assay (Far Western), GST-PH1; details: 0.5 μg/ml fusion protein, lipids spotted on membrane
# T1 construct: AFAP-110 contains two PH domains, one amino terminal (PH1) and the other carboxy terminal (PH2); made in house; host or cells: bacteria
# Experimental: (§1) FIG. 5: The phospholipid binding properties of the PH domains of AFAP-110. A) Pleckstrin homology fusion proteins, GST-PH1, GST-PH2 and GST-DAPP1, were purified from bacteria by affinity chromatography. Phospholipids were spotted onto PVDF membranes as described in the methods section. The membranes were incubated overnight with 0.5 μg/ml • GST-PH1, GST-PH2 or GST-DAPP1. Washed membranes were incubated with anti-GST antibody and exposed to film.
# B) Pleckstrin homology fusion protein, GST-PH1, was purified from bacteria by affinity chromatography. Two-fold changes in concentration (1.6 pg-100.0 pg) of phospholipids were spotted onto PVDF membranes as described in the methods section. The PIP arrays were incubated with 0.5 μg/ml fusion protein and probed with anti-GST antibody.
# Pleckstrin homology (PH) fusion proteins GST-PH1, GST-PH2 and GST-DAPP1, were purified from bacteria by affinity chromatography. A Far Western Blot procedure was used for detecting the fusion protein binding to nitrocellulose immobilized phospholipids (Stevenson, J. Met. al., 1998); PIP strips and PIP arrays were purchased from Echelon, Inc. Overlay assays measured the relative amounts of GST-tagged fusion protein bound to spotted phospholipids. A plasmid encoding GST-DAPP1 previously shown to bind Ptdlns-3,4-P2 and Ptdlns-3,4,5-P3 (Dowler, S. et. al., 1999) was used as a control, kindly provided by Mark Lemmon (Lemmon, M. A., 2003). The membranes were wetted with methanol and then transferred to blocking solution composed of 3% BSA in TBS containing 1% Tween-20 (TBS-T) for 1 hour at 4° C. Membranes were incubated with 0.5 μg/ml each fusion proteins in TBS-T overnight at 4° C. Following incubation, membranes were rinsed three times with TBS-T, washed for 5 minutes and incubated at 4° C. for 1 hour with anti-GST antibody (1:20000 in TBS-T). Following the standard wash procedure, membranes were incubated at 4° C. for 30 minutes with peroxidase-conjugated secondary antibody (1:30000 in TBS-T). The washed membranes were incubated with chemiluminescence reagent and exposed to X-ray film.
# PH domain of DAPP1 = biological target: T2, PH domain of DAPP1 (Homo sapiens, UniProt Q9UN19); assay: Lipid binding assay (Far Western), GST-DAPP1; details: 0.5 μg/ml fusion protein
# T2 construct: GST-fusion proteins that expressed the PH domain of DAPP1 as a positive control; made in house; host or cells: bacteria (plasmid provided by Mark Lemmon)
# T2 sequence (Q9UN19 164-259 limits assumed): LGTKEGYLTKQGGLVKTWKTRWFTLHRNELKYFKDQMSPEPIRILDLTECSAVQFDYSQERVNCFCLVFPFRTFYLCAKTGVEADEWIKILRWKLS
# Experimental: as §1
# C) Fusion protein, GST-DAPP1, was purified from bacteria by affinity chromatography. Two-fold changes in concentration (1.6 pg-100.0 pg) of phospholipids were spotted onto PVDF membranes as described in the methods section. Membranes were incubated with 0.5 μg/ml fusion proteins. Washed membranes were probed using with anti-GST antibody.
# Pleckstrin homology (PH) fusion proteins GST-PH1, GST-PH2 and GST-DAPP1, were purified from bacteria by affinity chromatography. A Far Western Blot procedure was used for detecting the fusion protein binding to nitrocellulose immobilized phospholipids (Stevenson, J. Met. al., 1998); PIP strips and PIP arrays were purchased from Echelon, Inc. Overlay assays measured the relative amounts of GST-tagged fusion protein bound to spotted phospholipids. […]
# PH1 domain of AFAP-110 [2] = biological target: T1, PH1 domain of AFAP-110; assay: Lipid sedimentation assay, GST-PH1; assay type: binding; details: PC vesicles with lipid 19:1 (PC:PS 7:3), 0.025 mM GST fusion protein
# Experimental: E) Lipid sedimentation assay was performed using pleckstrin homology fusion protein GST-PH1 as described in the methods sections. The GST-PH1 fusion protein has the capacity to co-sediment with several lipids containing vesicles as indicated in the pellet (P). Soluble fractions (S) containing unbound GST-PH1 purified fusion proteins were resolved by SDS-PAGE and detected by Coomassie stain.
# A sedimentation assay was used to detect PH domain protein association with membrane phospholipids. Phospholipid stock solutions: 1 mg/ml L-α-Ptdlns-4-P, 1.0 mg/ml 1,2-dipalmitoyl-sn-glycero-3-Ptdlns-3-P, 0.1 mg/ml 1,2-dioleoyl-sn-glycero-3-Ptdlns-3,4-P2, and 1 mg/ml L-α-Ptdlns-4,5-P2 in chloroform:methanol:water (60:30:4). However, 10 mg/ml L-α-phosphatidylinositol, 0.1 mg/ml L-α Ptdlns-3-P, 0.2 mg/ml L-α-Ptdlns-3,4,5-P3, 10 mg/ml L-α-phosphatidylserine, and 10 mg/ml L-α-phosphatidylcholine in chloroform neat. All lipid stocks were purged with dry N2 and stored −20° C. The lipid vesicles were prepared as follows utilizing a sonication method. Briefly, in a heavy walled tube, PC and another stock phospholipid (e.g. Ptdlns, Ptdlns-3-P, Ptdlns-4-P, Ptdlns-3,4-P2, Ptdlns-3,5-P2, Ptdlns-3,4,5-P3, or PC) were combined in a 19:1 molar ratio; PC and PS were combined in a 7:3 molar ratio. Lipids were dried with a stream of N2 and traces of solvent were removed by vacuum and resuspended to 5.2 mM PC in buffer B [10 mM HEPES, pH 7.5, 50 mM KCl, 0.5 mM EGTA, and 1.0 mM MgCl2]. The resulting phospholipid sheets were sonicated to form vesicles. Samples were prepared to contain 1.7 mM vesicle PC and 0.025 mM recombinant GST fusion protein (DAPP1 or PH1) in buffer B. Samples were incubated 60 min and centrifuged with a Beckman Airfuge for 15 min at room temperature. 16% of the supernatant and 100% of the pellet from each sample was used for analysis by Laemmli method of SDS polyacrylamide gel electrophoresis. The gels were stained with SYPRO Orange or Coomassie Blue to visualize the proteins.
# T1 sequence (Q90738 153-249 limits assumed): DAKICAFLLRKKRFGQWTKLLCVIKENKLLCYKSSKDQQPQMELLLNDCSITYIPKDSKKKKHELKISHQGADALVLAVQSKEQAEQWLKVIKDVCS
substance,measurement,setting,value
"Phosphoinositol-3,4,5-trisphosphate [Ptdlns-3,4,5-P3]",binding of GST-PH1 to immobilized phospholipid (far western),PH1 domain of AFAP-110 [1],binding the weakest
same,binding of GST-DAPP1 to immobilized phospholipid (far western),PH domain of DAPP1,binds well
same,binding (co-sedimentation) of GST-PH1 to lipid vesicles containing the lipid,PH1 domain of AFAP-110 [2],low
